Test results as given in the supplement of paper PMC10307832.

Assays:
Test in all cases: relative viability (nuclei count vs DMSO), 5 days (fraction); higher = more cells survive
Idelalisib + Tozasertib = compound: CC[C@H](Nc1ncnc2[nH]cnc12)c1nc2cccc(F)c2c(=O)n1-c1ccccc1 [Idelalisib] + Cc1cc(Nc2cc(N3CCN(C)CC3)nc(Sc3ccc(NC(=O)C4CC4)cc3)n2)n[nH]1 [Tozasertib] (partner 0.1 µM)
In short: (§1)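 Lung cancer cell lines in 1536-well plates got either a single drug or a fixed anchor-drug dose together with five library-drug doses (not always all listed) in √10 steps, by pin tool, on the day after seeding. Nuclei were counted after 5 days, and relative viability is the treated-to-vehicle ratio of nuclei counts. Values are medians of duplicate plates.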

Pemetrexed + Lapatinib = compound: Nc1nc2[nH]cc(CCc3ccc(C(=O)N[C@@H](CCC(=O)O)C(=O)O)cc3)c2c(=O)[nH]1 [Pemetrexed] + CS(=O)(=O)CCNCc1ccc(-c2ccc3ncnc(Nc4ccc(OCc5cccc(F)c5)c(Cl)c4)c3c2)o1 [Lapatinib] (partner 2 µM)
In short: as §1

Idelalisib + Dasatinib = compound: CC[C@H](Nc1ncnc2[nH]cnc12)c1nc2cccc(F)c2c(=O)n1-c1ccccc1 [Idelalisib] + Cc1nc(Nc2ncc(C(=O)Nc3c(C)cccc3Cl)s2)cc(N2CCN(CCO)CC2)n1 [Dasatinib] (partner 0.075 µM)
In short: as §1

Pemetrexed + Foretinib = compound: Nc1nc2[nH]cc(CCc3ccc(C(=O)N[C@@H](CCC(=O)O)C(=O)O)cc3)c2c(=O)[nH]1 [Pemetrexed] + COc1cc2c(Oc3ccc(NC(=O)C4(C(=O)Nc5ccc(F)cc5)CC4)cc3F)ccnc2cc1OCCCN1CCOCC1 [Foretinib] (partner 0.25 µM)
In short: as §1

Row | Cell Line | relative viability (Idelalisib + Tozasertib; first compound 0.04 µM) | relative viability (Idelalisib + Tozasertib; first compound 0.1265 µM) | relative viability (Idelalisib + Tozasertib; first compound 0.4 µM) | relative viability (Idelalisib + Tozasertib; first compound 1.265 µM) | relative viability (Idelalisib + Tozasertib; first compound 4 µM) | relative viability (Pemetrexed + Lapatinib; first compound 0.006325 µM) | relative viability (Pemetrexed + Lapatinib; first compound 0.02 µM) | relative viability (Pemetrexed + Lapatinib; first compound 0.06325 µM) | relative viability (Pemetrexed + Lapatinib; first compound 0.2 µM) | relative viability (Idelalisib + Dasatinib; first compound 0.04 µM) | relative viability (Idelalisib + Dasatinib; first compound 0.1265 µM) | relative viability (Idelalisib + Dasatinib; first compound 0.4 µM) | relative viability (Idelalisib + Dasatinib; first compound 1.265 µM) | relative viability (Idelalisib + Dasatinib; first compound 4 µM) | relative viability (Pemetrexed + Foretinib; first compound 0.002 µM) | relative viability (Pemetrexed + Foretinib; first compound 0.006325 µM) | relative viability (Pemetrexed + Foretinib; first compound 0.02 µM) | relative viability (Pemetrexed + Foretinib; first compound 0.06325 µM) | relative viability (Pemetrexed + Foretinib; first compound 0.2 µM) | relative viability (Pemetrexed + Lapatinib; first compound 0.002 µM)
1 | NCI-H1975 | 0.7 | 0.794 | 0.671 | 0.718 | 0.565 | 0.885 | 0.906 | 0.78 | 0.423 | 0.363 | 0.436 | 0.263 | 0.402 | 0.293 | 0.899 | 0.914 | 1.02 | 0.825 | 0.401 | –
2 | NCI-H2126 | 0.838 | 0.905 | 0.765 | 0.813 | 0.626 | 0.747 | 0.789 | 0.747 | 0.739 | 0.548 | 0.664 | 0.522 | 0.62 | 0.557 | 1.02 | 1.19 | 1.29 | 0.565 | 1.03 | 0.75
3 | 201T | 1.07 | 1.01 | 0.785 | 0.947 | 0.667 | 1.04 | 1.1 | 1.07 | 1 | 0.609 | 0.614 | 0.476 | 0.623 | 0.605 | 1.1 | 1.11 | 1.19 | 0.69 | 0.316 | 0.977
4 | HCC-78 | 0.314 | 0.389 | 0.392 | 0.388 | 0.295 | 0.796 | 0.58 | 0.223 | 0.153 | 0.407 | 0.378 | 0.311 | 0.361 | 0.41 | 0.447 | 0.541 | 0.54 | 0.319 | 0.298 | –
5 | NCI-H358 | 0.106 | 0.0937 | 0.113 | 0.088 | 0.116 | 0.4 | 0.441 | 0.311 | 0.276 | 0.167 | 0.165 | 0.13 | 0.143 | 0.173 | 0.624 | 0.747 | 0.56 | 0.223 | 0.149 | 0.4
6 | SK-LU-1 | 0.294 | 0.313 | 0.337 | 0.32 | 0.327 | 0.853 | 0.96 | 0.804 | 0.695 | 0.165 | 0.163 | 0.153 | 0.153 | 0.186 | 0.71 | 0.888 | 0.923 | 0.783 | 0.801 | 0.772
7 | H3255 | 0.646 | 0.852 | 0.583 | 0.568 | 0.544 | 0.15 | 0.278 | 0.245 | 0.296 | 0.442 | 0.342 | 0.386 | 0.391 | 0.312 | 0.608 | 0.924 | 1.07 | 0.943 | 0.741 | –
8 | LOU-NH91 | 0.749 | 0.641 | 0.651 | 0.557 | 0.708 | 0.792 | 0.734 | 0.58 | 0.514 | 0.599 | 0.561 | 0.482 | 0.42 | 0.542 | 0.941 | 0.915 | 0.992 | 0.709 | 0.434 | 0.799
9 | NCI-H1666 | 0.662 | 0.594 | 0.78 | 0.639 | 0.57 | 0.647 | 0.566 | 0.575 | 0.394 | 0.79 | 0.863 | 0.676 | 0.79 | 0.773 | 0.942 | 0.996 | 0.929 | 0.953 | 0.832 | 0.678
10 | SK-MES-1 | 0.972 | 1.05 | 0.955 | 0.964 | 0.931 | 0.423 | 0.469 | 0.453 | 0.457 | 0.33 | 0.306 | 0.208 | 0.199 | 0.187 | 0.883 | 0.83 | 1.04 | 0.907 | 0.868 | 0.473
11 | NCI-H2023 | 0.355 | 0.284 | 0.363 | 0.321 | 0.253 | 0.726 | 1.01 | 0.66 | 0.202 | 0.625 | 0.549 | 0.438 | 0.487 | 0.375 | – | 0.739 | 0.885 | 0.888 | 0.319 | 0.292
12 | COR-L 105 | 0.354 | 0.321 | 0.312 | 0.334 | 0.357 | 0.389 | 0.375 | 0.406 | 0.315 | 0.363 | 0.379 | 0.31 | 0.354 | 0.334 | 0.97 | 1.16 | 1.17 | 1.15 | 1.24 | 0.404
13 | NCI-H838 | 0.268 | 0.288 | 0.282 | 0.258 | 0.257 | 0.93 | 1.35 | 0.856 | 0.329 | 0.248 | 0.307 | 0.219 | 0.283 | 0.345 | 1.01 | 0.912 | 1.16 | 0.91 | 0.267 | 0.904
14 | SW 1573 | 0.168 | 0.181 | 0.163 | 0.201 | 0.142 | 1.11 | 1.19 | 1.07 | 1.12 | 0.508 | 0.475 | 0.503 | 0.324 | 0.376 | 0.909 | 0.808 | 0.951 | 0.979 | 0.855 | 1.12
